# Assay results: patent US8822419B2, “Membrane resident peptide in anti-cancer peptides causes tumor cell necrosis rather than apoptosis of cancer cells” (The Research Foundation of State University of New York, priority 2008, dated 2014)
# Entries after “also recorded” stand apart in the source; their conditions may differ.
# What was measured:
# MiaPaCa-2 cells [1] = assay: Incubation of MiaPaCa-2 cells with peptides; cell counts by trypan blue exclusion, MTT; format: cell-based, human
# Method: Duplicate sets of 6×10^6 MiaPaCa-2 cells were incubated with different concentrations of PNC-28, i.e., 5, 10, 20, 40, 80 and 160 μmol/ml. […] All incubations were carried out using a protocol identical to that described in ref. 1 (1). After the cells had been allowed to adhere to the tissue culture dish (TCD) for 24 hours the medium was removed from each TCD, and new medium containing the same or no peptide concentration was added. Medium from each TCD was removed every 24 h, and fresh medium with its respective peptide at the appropriate concentration was added. Cells were inspected daily for changes in cell growth, morphology, and viability. At the end of each day over a five-day period, duplicate cell counts were performed for each incubation using the trypan blue exclusion method. In addition, cell viability was also determined by 3-[4,5-dimethylthiazol-2-yl]-2,5 diphenyl tetrazolium bromide (MTT) assay according to the manufacturers' instructions (Promega Corporation, Madison, Wis., USA).
# cancer cells = conditions: previous studies (1-3), also in cancer cells in which p53 protein was absent; cited from earlier work
# MiaPaCa-2 cells [2] = assay: Time-lapse electron microscopy of MiaPaCa-2 cells treated with PNC-28; format: cell-based, human; conditions: 25 μmol/ml, 15 min, FIG. 4B
# Method: Time-lapse electron microscopy (EM) was used to examine the ultrastructural features of cell death. MiaPaCa-2 cells were grown for 24 h on Thermanox cover slips (Lux Scientific), and then treated with 25 μmol of PNC-28 for 1 and 15 min, along with a corresponding control group without peptide. The cells were washed with PBS solution and then fixed with 2.5% gluteraldehyde-PBS. The fixed cultures were rinsed in a 0.1 M phosphate buffer (pH 7.3), post fixed in 2% (0.08 m) osmium tetroxide-PBS (pH 7.3), dehydrated in a graded series of ethanol and propylene oxide and embedded in Epon 812. Sections were cut at 700 Å, stained with uranyl acetate and lead citrate and examined with a Jeol JEM 1010 Electron Microscope.
# MiaPaCa-2 cells [3] = assay: LDH release into cell culture medium (CytoTox96) as marker for necrosis; format: cell-based, human
# Method: (§1) Cells from culture plates at 18, 44, 66 and 90 h time points were lysed in situ in cell lysis buffer [1% Triton X-100 in 0.05 M Tris-HCl (pH 8.0), […], 0.02% Na azide, 0.1 mg/ml phenylmethylsulfonylfluoride (PMSF), and 0.001 mg/ml Aprotinin]. Lysates were subjected to 10% SDS-PAGE followed by electrotransfer to nitrocellulose and immunoblotting with antibodies to GFP and p53 (Santa Cruz Biotechnology, Santa Cruz, Calif.). Antibody-labeled proteins were identified by chemiluminescence using ECL methodology (Amersham)(1). Assays for elevated caspase expression were performed using the Clontech (Palo Alto, Calif.) for caspase (CPP32) activity (2). As a positive control for the caspase activity assay, Mia-PaCa-2 cells were incubated with tumor necrosis factor (TNF) (Sigma, St. Louis, Mo.) at a concentration of 10 ng/ml for 24 h. In addition, to detect if significant cell necrosis occurred, the CytoTox96 assay was used (Promega, Madison, Wis.) for LDH released into the cell culture medium as performed on several breast cancer cell lines (2).
# MiaPaCa-2 cells [4] = assay: Immunoblotting of MiaPaCa-2 cell lysates for p53 and waf^p21, with caspase activity; format: cell-based, human; conditions: at near 100 percent cell death: 96 hr transfected cells, 48 hr PNC-28 75 μmol/ml, FIG. 6
# Method: For protein analyses, and detection of apoptosis, 2×10^6 cells were seeded into 10 cm diameter TCDs and transfected with DNA: Lipofectamine 2000 proportionally adjusted to the increased area. When the cell density reached 90-100%, the cells of the experimental and sham-transfected group were detached using trypsin and plated into four new TCD's in which they were allowed to grow in complete medium. At defined time points cells were released from adherence with 10 mM EDTA in PBS and were lysed in lysing buffer [1% Triton X-100 in 0.05 M Tris-HCl (pH 8.0), […], 0.02% Na azide, 0.01 mg/ml phenylmethylsulfonylfluoride (PMSF), and 0.001 mg/ml Aprotinin]. Protein equivalents of 10^6 cells, i.e., ˜30 μg/lane, were then subjected to SDS-PAGE using 10% Tris-HCl gels and, in some experiments, 16% Tricine Peptide Gels (Biorad, Hercules, Calif.) to detect PNC-28 (−3104 Da) and p53 17-26 (−1500 Da). […] Semi-quantitation of immunoblotting results was performed by measuring luminosity of bands in a single scanned developed x-ray film, using the histogram option of Adobe Photoshop 5.5. […] Opacity of each band was calculated by the equation, Opacity=255-Luminosity-background (15). […]
# MiaPaCa-2 cells [5] = assay: Caspase (CPP32) activity assay as marker for apoptosis; format: cell-based, human
# Method: as §1
# [6] = all doses over the 20-75 μmol/ml range, FIG. 4D
compound,measurement,setting,value
"CC[C@H](C)[C@H](NC(=O)[C@H](CCCNC(=N)N)NC(=O)[C@H](CCCCN)NC(=O)CNC(=O)[C@@H](NC(=O)[C@H](CO)NC(=O)[C@H](Cc1ccccc1)NC(=O)[C@@H]1CCCN1C(=O)[C@@H](N)CCSC)[C@@H](C)O)C(=O)N[C@@H](CCSC)C(=O)N[C@@H](CC(C)C)C(=O)NCC(=O)N[C@@H](CCC(=O)O)C(=O)N[C@@H](CCCCN)C(=O)N[C@@H](CCCCN)C(=O)N[C@@H](Cc1c[nH]c2ccccc12)C(=O)N[C@@H](CCCCN)C(=O)N[C@@H](CCSC)C(=O)N[C@@H](CCCNC(=N)N)C(=O)N[C@@H](CCCNC(=N)N)C(=O)N[C@@H](CC(N)=O)C(=O)N[C@@H](CCC(N)=O)C(=O)N[C@@H](Cc1ccccc1)C(=O)N[C@@H](Cc1c[nH]c2ccccc12)C(=O)N[C@H](C(=O)N[C@@H](CCCCN)C(=O)N[C@H](C(=O)N[C@@H](CCC(N)=O)C(=O)N[C@@H](CCCNC(=N)N)C(=O)NCC(=O)O)C(C)C)C(C)C [PNC-29, reference compound]","cytotoxicity, number of remaining cells versus untreated","MiaPaCa-2 cells [1]; 75 μmol/ml, 48 h, FIG. 3",no effect on cell growth
ETFSDLWKLLKKWKMRRNQFWVKVQRG (PNC-28),mode of tumor cell death,cancer cells,"induced tumor cell necrosis, not apoptosis"
same,time to cell death,MiaPaCa-2 cells [1]; 20 μmol/ml,1 week
same,cell death,"MiaPaCa-2 cells [1]; 20 μmol/ml, 48 h, FIG. 2",roughly 35%
same,time to similar (near total) cell death,MiaPaCa-2 cells [1]; 40 μmol/ml,4 days
same,cell morphology,"MiaPaCa-2 cells [1]; 75 μmol/ml, 24 h, FIG. 1B",appear necrotic
same,cell death as measured by trypan blue dye uptake,"MiaPaCa-2 cells [1]; 75 μmol/ml, 48 h",~100%
same,time to near total cell death,MiaPaCa-2 cells [1]; 80 μmol/ml,48 h
same,cell death,"MiaPaCa-2 cells [1]; 80 μmol/ml, 48 h, FIG. 2",over 80%
same,cell death,"MiaPaCa-2 cells [1]; doses between 20 and 75 μmol/ml, time decreasing with dose",~100%
same,plasma membrane integrity in electron micrographs,MiaPaCa-2 cells [2],exhibit lysis of their plasma membranes
same,LDH activity,"MiaPaCa-2 cells [3]; 25 μmol/ml, 24 h, FIG. 4A",almost to the same extent as cells that were lysed with lysis buffer; also recorded: high levels of LDH
same,LDH,"MiaPaCa-2 cells [3]; 25 umol/ml, 24 h, FIG. 4D",approximately 0.235 OD
same,LDH,"MiaPaCa-2 cells [3]; 50 umol/ml, 24 h, FIG. 4D",approximately 0.44 OD
same,LDH,"MiaPaCa-2 cells [3]; 75 umol/ml, 24 h, FIG. 4D",approximately 0.35 OD
same,LDH release,MiaPaCa-2 cells [3]; [6],early release of LDH
same,"levels of p53, waf^p21 and caspase activity",MiaPaCa-2 cells [4],not observed
same,caspase level,"MiaPaCa-2 cells [5]; 25 μmol/ml, 24 h, FIG. 4C",only baseline levels
same,caspase,"MiaPaCa-2 cells [5]; 25 umol/ml, 24 h, FIG. 4D",approximately 0.03
same,caspase,"MiaPaCa-2 cells [5]; 50 umol/ml, 24 h, FIG. 4D",approximately 0.02
same,caspase,"MiaPaCa-2 cells [5]; 75 umol/ml, 24 h, FIG. 4D",approximately 0.015
same,caspase level,MiaPaCa-2 cells [5]; [6],only background levels of caspase
PPLSQETFSDLWKLLKKWKMRRNQFWVKVQRG (PNC-27),mode of tumor cell death,cancer cells,"induced tumor cell necrosis, not apoptosis"
TNF-α [reference compound],"caspase 3 activity, positive control","MiaPaCa-2 cells [5]; 10 ng/ml, 24 h, FIG. 4C condition 1",Maximal caspase release
